Results published in patent publication US20230390250A1, “MODULATION OF GLUCAGON-LIKE PEPTIDE 1 AND USES THEREOF” (priority 2020, published 2023).
“Also recorded” adds a separate entry of the source. Like-named read-outs stand apart in the source and are kept apart here.

Tests used:
[1] = test system: GLUTag cells; experiment: GLP-1 secretion from cultured GLUTag cells treated with LPA and/or LPAR antagonist; assay type: cell-based, mouse; settings: for decrease in GLP-1 secretion / level caused by LPA (fraction): 2-2.5 h; for effect of LPAR antagonist alone on GLP-1 levels: 10 μM antagonist alone, 2 h; for rescue of LPA-inhibited GLP-1 secretion by LPAR antagonist: 10 μM antagonist plus 2.5 μM LPA
Method: We have grown GLUTag cells in culture to test effects of various LPA species and the LPAR 1/2/3 inhibitor Ki-16425. GLUTag cells are a well characterized L-cell line derived from a mouse intestinal tumour, which have been widely used to study the regulation of GLP-1. Briefly, GLUTag cells were grown until 80-90% confluent. Complete medium, containing fetal bovine serum, was replaced with medium containing charcoal[…] dextran treated serum, which removes lipids and hormones that could interfere with testing. […] This indicates a direct inhibitory effect of LPA at physiologically relevant levels on GLP-1 secretion by L-cells, and the ability of a commercially available LPAR antagonist to prevent this.
Experimental Protocol. Briefly, GLUTag cells were grown until 70-80% confluent. Complete medium (low glucose DMEM), containing fetal bovine serum, was replaced with medium containing charcoal-dextran treated serum, which removes lipids and hormones that could interfere with testing. Cells were then treated with medium containing either DMSO as vehicle control (0.1% v/v), 2.5 μM LPA, 10 μM LPAR antagonist, or a combination of the LPA species and inhibitors. For cells treated with both LPA plus LPAR inhibitor: cells were pre-treated with LPA for 30 minutes and then 10 uM LPAR inhibitor was added to the respective wells for a further 2 hours. For cells treated with LPA only, or vehicle only, the total treatment time was 2.5 hours. For cells treated with antagonist only, the treatment time was 2 hours.

[2] = test system: DPP4; experiment: DPP4 activity in GLUTag cells (fluorometric kit ab204722); assay type: cell-based, mouse
Method: Briefly, GLUTag cells were grown to produce the recommended quantity needed for the assay according to the manufacturer's protocol (ab204722 Dipeptidyl peptidase IV Activity Assay Kit (Fluorometric)), and then the wells were treated in media containing charcoal-stripped FBS (10%), with either nothing (no treatment control), or vehicle control (0.05% DMSO), or 2.5 uM 18:1-LPA for 30 minutes, and then the inhibitors (as indicated in the graph of FIG. 17) were added to the vehicle wells and the 2.5 uM 18:1-LPA wells at 10 uM concentrations, as indicated on the graph (FIG. 17), for an additional 2 hours. Cells were then harvested according to the manufacturer's protocol, and lysed using reagents from the kit. Charcoal-stripped FBS was used to remove lipids, including LPA, from serum. Experiments were also carried out wherein the FBS was not stripped with charcoal, and the results were not different.
According to the manufacturer, dipeptidyl peptidase IV (DPP4) Activity Assay Kit (Fluorometric) (ab204722) is an assay where DPP4 cleaves a substrate to release a quenched fluorescent group, AMC (7-Amino-4-Methyl Coumarin), which can be easily detected at Ex/Em=360/460 nm. This assay is rapid, simple, sensitive, and reliable, as well as, suitable for high throughput activity screening of DPP4. This kit detects DPP4 activity as low as 3 ρU per well.

[3] = test system: GLP-1; experiment: Circulating GLP-1 in mice injected with LPA, with or without LPAR antagonist pre-treatment; assay type: in vivo; settings: for decrease in plasma GLP-1 levels after LPA injection / effect of LPA on circulating GLP-1 levels (words): 50 mg/kg i.p.; for decrease in plasma GLP-1 levels after LPA injection: 30 minutes later, n=3 (Example 3, FIG. 4); for effect of LPA on circulating GLP-1 levels (words): mice; for rescue of the fall in blood GLP-1 levels caused by LPA: serum at 30 min (Examples 6, 8); for blood GLP-1 with antagonist alone versus vehicles: no LPA
Method: We injected mice i.p. with vehicle (10% DMSO in isotonic saline) or 50 mg/kg of 1-oleoyl-2-hydroxy-LPA. Half of the mice injected with LPA were pre-injected with 5 mg/kg Ki-16425 10 minutes prior to receiving LPA. Thirty minutes later, samples of blood were taken by cardiac puncture, and circulating active GLP-1 levels in plasma were analysed by enzyme linked immunosorbent assay.
(§1) The experimental protocol was as follows: • 1. Mice were administered an LPAR antagonist drug, either by oral gavage (for BMS986020, SARI 00842, AM966, AM095, or H2L51863030), or by i.p. injection (for Ki-16425, and LPA2-antagonistl) at the doses indicated in the table below. • 2. Control mice were administered only the vehicle (a 10% DMSO solution) given via the same route as the comparison drug was administered. • 3. Ten minutes later, mice were injected i.p. either with isotonic saline, or with 50 mg/kg LPA. • 4. Thirty minutes later, mice were euthanized by cervical dyslocation, and blood was collected from the heart for preparation of serum that was stored at −80C until it was analyzed for total GLP-1 concentration by ELISA assay using a GLP-1 enzyme immunoassay kit.

[4] = test system: DPP4; experiment: DPP4 activity in serum of C57BI/6J mice; assay type: in vivo; settings: 50 mg/kg 18:1-LPA i.p., serum 30 minutes later
Method: Mice were injected with 5 mg/kg Ki16425 or control (10% DMSO in isotonic saline), then injected 10 mins later with 50 mg/kg 1-18:1-LPA or saline (vehicle control), then euthanized 30 minutes later for serum collection and analysis.
as §1, with “(for” for “(for BMS986020,”, “00842” for “00842, AM966, AM095,”, “AM966),” for “H2L51863030),”, “Ki-16425)” for “Ki-16425, and LPA2-antagonistl)”, “18:1-LPA.” for “LPA.”

[5] = molecular target: T1, LPAR1 (Homo sapiens, UniProt Q92633); settings: cited from earlier work
Target sequence in this assay (Q92633 whole entry, species assumed): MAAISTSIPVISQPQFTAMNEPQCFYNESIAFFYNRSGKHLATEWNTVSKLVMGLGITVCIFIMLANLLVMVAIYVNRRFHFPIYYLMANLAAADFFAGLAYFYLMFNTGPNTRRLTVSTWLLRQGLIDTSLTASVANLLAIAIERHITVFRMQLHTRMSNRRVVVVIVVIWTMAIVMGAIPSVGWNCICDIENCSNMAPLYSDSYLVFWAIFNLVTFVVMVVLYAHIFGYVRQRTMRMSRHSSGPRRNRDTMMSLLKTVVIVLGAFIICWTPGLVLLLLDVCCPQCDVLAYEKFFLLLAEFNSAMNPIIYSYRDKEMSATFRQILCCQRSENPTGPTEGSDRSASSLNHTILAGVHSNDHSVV

[6] = molecular target: T2, LPAR3 (Homo sapiens, UniProt Q9UBY5); settings: cited from earlier work
T2 sequence (Q9UBY5 1-353): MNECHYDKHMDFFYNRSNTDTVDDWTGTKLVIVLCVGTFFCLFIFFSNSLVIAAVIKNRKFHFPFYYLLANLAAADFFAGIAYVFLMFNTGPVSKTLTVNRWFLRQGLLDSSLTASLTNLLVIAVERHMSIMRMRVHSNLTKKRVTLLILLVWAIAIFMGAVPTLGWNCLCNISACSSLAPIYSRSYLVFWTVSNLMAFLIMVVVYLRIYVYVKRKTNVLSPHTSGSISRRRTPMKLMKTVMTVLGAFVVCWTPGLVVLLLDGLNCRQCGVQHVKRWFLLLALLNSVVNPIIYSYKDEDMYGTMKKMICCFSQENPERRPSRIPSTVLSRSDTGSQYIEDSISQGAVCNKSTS

[7] = molecular target: LPAR2 (Homo sapiens, UniProt Q9HBW0); settings: cited from earlier work
LPAR2, sequence (Q9HBW0 whole entry, species assumed): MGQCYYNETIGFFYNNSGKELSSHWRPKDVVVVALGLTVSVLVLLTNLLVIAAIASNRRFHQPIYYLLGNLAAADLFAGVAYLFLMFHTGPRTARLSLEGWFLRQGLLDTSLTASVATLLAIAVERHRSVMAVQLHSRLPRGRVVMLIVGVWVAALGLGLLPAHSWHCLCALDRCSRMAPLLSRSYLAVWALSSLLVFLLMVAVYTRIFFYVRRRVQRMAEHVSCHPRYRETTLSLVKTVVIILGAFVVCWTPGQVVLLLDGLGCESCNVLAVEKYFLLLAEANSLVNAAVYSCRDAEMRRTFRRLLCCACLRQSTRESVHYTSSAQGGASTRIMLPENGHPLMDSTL

[8] = molecular target: T1, LPAR1; set-up: expressed in transfected cells; host or cells: CHO cells; settings: LPA-induced calcium response, CHO cells with LPAR1; cited from earlier work
Target sequence in this assay (Q92633 whole entry): as the sequence (Q92633 whole entry, species assumed) above

[9] = test system: DPP4; experiment: DPP4 activity in serum of C57BI/6J mice; assay type: in vivo
[10] = test system: insulin secretion; settings: prior study, Rancoule et al. 2013; cited from earlier work
[11] = antagonist 30 mg/kg by gavage 10 min before 50 mg/kg 18:1-LPA i.p.

CCCCCCCCCCCCCCCC(=O)OCC(O)COP(=O)(O)O (stereo not shown) [1-palmitoyl-2-hydroxy-LPA]
decrease in GLP-1 secretion / level caused by LPA (fraction) ([1]; 2.5 μM LPA): over 2/3

CCCCCCCCCCCCCCCCCC(=O)OCC(O)COP(=O)(O)O (stereo not shown) [1-stearoyl-2-hydroxy-LPA]
decrease in GLP-1 secretion / level caused by LPA (fraction) ([1]; 2.5 μM LPA): over 2/3

CCCCCCCC/C=C\CCCCCCCC(=O)OC[C@@H](O)COP(=O)(O)O [18:1-LPA, 1-oleoyl-2-hydroxy-LPA]
effect of LPA on DPP4 activity in GLUTag cells ([2]; 2.5 uM 18:1-LPA): did not significantly reduce
decrease in plasma GLP-1 levels after LPA injection [3]: ~60%
decrease in plasma GLP-1 levels after LPA injection ([3]; listed as 1-18:1-LPA): over 60%
effect of LPA on circulating GLP-1 levels (words) [3]: decreased
effect of LPA on circulating GLP-1 levels (words) ([3]; listed as 1-oleoyl-2-hydroxy-LPA): decreases circulating GLP-1 levels
decrease in GLP-1 secretion / level caused by LPA (fraction) ([1]; 2.5 μM LPA): > 2/3
decrease in GLP-1 secretion / level caused by LPA (fraction) ([1]; 2.5 μM LPA, listed as 1-oleoyl-2-hydroxy-LPA): over 2/3
effect of LPA on DPP4 activity in mouse serum [4]: did not affect

CCCCC/C=C\C/C=C\CCCCCCCC(=O)OCC(O)COP(=O)(O)O (stereo not shown) [18:2-LPA, 1-linoleoyl-2-hydroxy-LPA]
effect of LPA on GLP-1 secretion ([1]; 2.5 μM LPA): decreases GLP-1 secretion
decrease in GLP-1 secretion / level caused by LPA (fraction) ([1]; 2.5 μM LPA): > 2/3
decrease in GLP-1 secretion / level caused by LPA (fraction) ([1]; 2.5 μM LPA, listed as 1-linoleoyl-2-hydroxy-LPA): over 2/3

Cc1noc(-c2ccc(-c3ccc(C4(C(=O)O)CC4)cc3)cc2)c1NC(=O)O[C@H](C)c1ccccc1 [BMS-986020]
Ki [5]: < 0.3 µM
IC50 ([5]; read-out: IC50 for LPAR1): < 0.3 µM
rescue of the fall in blood GLP-1 levels caused by LPA [3, 11]: did not significantly rescue
blood GLP-1 with antagonist alone versus vehicles ([3]; antagonist 30 mg/kg by gavage): indistinguishable from mice treated only with the vehicles
effect of LPAR antagonist alone on GLP-1 levels [1]: no significant effect
rescue of LPA-inhibited GLP-1 secretion by LPAR antagonist [1]: partially rescued
rescue of LPA-inhibited GLP-1 secretion by LPAR antagonist ([1]; listed as BMS986020): did significantly restore GLP-1 secretion

O=C(O)/C=C\C(=O)Nc1ccc(Oc2cccc(Oc3ccc(NC(=O)/C=C\C(=O)O)cc3)c2)cc1 [H2L5186303]
Ki [6]: ~5 µM
IC50 ([6]; read-out: IC50 for LPAR3): 4.5 µM
Ki [5]: 27 µM
IC50 ([5]; read-out: IC50 for LPAR1): 27.4 µM
IC50 [7]: 8.9 nM
Ki [7]: 8.9 nM
rescue of the fall in blood GLP-1 levels caused by LPA [3, 11]: partially rescued; also recorded: partial rescue
blood GLP-1 with antagonist alone versus vehicles ([3]; antagonist 30 mg/kg by gavage): slightly, but significantly lower
effect of LPAR antagonist alone on GLP-1 levels [1]: no significant effect; also recorded: did not significantly affect
rescue of LPA-inhibited GLP-1 secretion by LPAR antagonist [1]: partially rescued

Cc1csc2c(N[C@@H](C)CN3CCN(S(=O)(=O)c4ccc(Cl)c(Cl)c4)CC3)ncnc12 [LPA2-antagonist 1]
IC50 ([6]; read-out: IC50 for LPAR3): > 50 µM
IC50 ([6]; read-out: IC50 with LPAR3): > 50 µM
IC50 ([5]; read-out: IC50 for LPAR1): > 50 µM
IC50 ([5]; read-out: IC50 with LPAR1): > 50 µM
IC50 [7]: 17 nM
rescue of the fall in blood GLP-1 levels caused by LPA ([3]; antagonist 5 mg/kg i.p. 10 min before 50 mg/kg 18:1-LPA i.p.): lack of rescue
rescue of the fall in blood GLP-1 levels caused by LPA ([3]; antagonist 5 mg/kg i.p. 10 min before 50 mg/kg 18:1-LPA i.p., listed as LPA2-antagonist): did not significantly rescue
blood GLP-1 with antagonist alone versus vehicles ([3]; antagonist 5 mg/kg i.p.): slightly, but significantly lower
effect of LPAR antagonist alone on GLP-1 levels [1]: no significant effect
effect of LPAR antagonist alone on GLP-1 levels ([1]; listed as LPA2-antagonist): did not significantly reduce
rescue of LPA-inhibited GLP-1 secretion by LPAR antagonist [1]: complete rescue
rescue of LPA-inhibited GLP-1 secretion by LPAR antagonist ([1]; listed as LPA2-antagonist): significantly increased

COc1ccc(C(=O)NC2(C(=O)O)Cc3ccccc3C2)cc1OCCc1cccc(C)c1 [SAR100842]
effect of 18:1-LPA combined with LPAR antagonist on DPP4 activity in GLUTag cells ([2]; 2.5 uM 18:1-LPA 30 minutes, then 10 uM antagonist 2 hours): did not significantly affect
effect of LPAR antagonist alone on DPP4 activity in GLUTag cells ([2]; 10 uM antagonist, 2 hours): did not significantly affect
concentration up to which no activity with LPAR3 ([6]; no activity up to): > 10,000 nM
concentration up to which no reported activity on LPAR3 ([6]; no reported activity up to): > 10 µM
IC50 ([5]; in cells, read-out: IC50 in cells for LPAR1): ~0.1 µM
concentration up to which no activity with LPAR2 ([7]; no activity up to): > 10,000 nM
concentration up to which no reported activity on LPAR2 ([7]; no reported activity up to): > 10 µM
rescue of the fall in blood GLP-1 levels caused by LPA [3, 11]: completely abrogated; also recorded: Complete rescues; also recorded: restored to normal levels
blood GLP-1 with antagonist alone versus vehicles ([3]; antagonist 30 mg/kg by gavage): indistinguishable from mice treated only with the vehicles
IC50 [8]: 59 to 262 nM
effect of antagonist on DPP4 activity in mouse serum ([9]; 30 mg/kg by gavage): did not significantly affect; also recorded: lack of effect; also recorded: not significantly affected
effect of 18:1-LPA combined with antagonist on DPP4 activity in mouse serum ([9]; antagonist 30 mg/kg by gavage then 50 mg/kg 18:1-LPA): did not affect

lysophosphatidic acid [LPA]
insulin secretion in mice injected with LPA [10]: impaired
effect of LPA on circulating GLP-1 levels (words) [3]: suppressed
fall in serum GLP-1 levels after LPA injection ([3]; vehicle (10% DMSO)-treated mice, 50 mg/kg 18:1-LPA i.p., 30 min, serum (Example 6)): > 50%
effect of LPA on DPP4 activity in mouse serum [4]: lack of effect; also recorded: not significantly affected
